Molecules are shown by their SMILES.

The nature of one series: in vitro. The settings on record: African green monkey.
Series [1] concerns SARS-associated coronavirus. The series is classed as cell-based. The settings on record: added to the culture medium; results not shown.
Series [2] has as its system TGEV (Transmissible gastroenteritis Virus). Kind of series: microbe, parasite or virus in culture. In kind it is cell-based.
The subject of series [3] is FipV (Feline infectious peritonitis Virus). Kind of series: microbe, parasite or virus in culture. In kind it is cell-based.
In another series the test system is CRFK cells. The note with it: cat.
For the next series, the system named is Vero cells. The settings on record: African green monkey.
A further series relates to FipV. In kind it is cell-based, Feline infectious peritonitis Virus. The note with it: 500 μM.
The subject of series [4] is SARS-associated coronavirus. In kind it is cell-based. The note with it: Vero cells, 72 hours after infection.
The subject of the next series is nitrous oxide synthase. In kind it is cell-based.
Another series deals with TGEV. In kind it is cell-based, Transmissible gastroenteritis Virus. The note with it: 500 μM.

In “in vitro”, `O=c1cnn([C@@H]2O[C@H](CO)[C@@H](O)[C@H]2O)c(=O)[nH]1` [Compound 6-azauridine, 6-azauridine] yielded a CC50 of 104 µg/mL.
`NC(=O)c1ncn([C@@H]2O[C@H](CO)[C@@H](O)[C@H]2O)n1` [Ribavirin]: the CC50 in “in vitro” was over 1000 µg/mL.
For `NCCN(CCN)/[N+]([O-])=N/O` [DETANONOate], the SARS-associated coronavirus replication result in series [1] is recorded as “replication was inhibited”.
Usually EC50 stands for the concentration at which the effect is half-maximal. As for `CC1(C)C(OC2OC(C(=O)O)C(O)C(O)C2OC2OC(C(=O)O)C(O)C(O)C2O)CC[C@@]2(C)C1CC[C@]1(C)C2C(=O)C=C2C3C[C@@](C)(C(=O)O)CC[C@]3(C)CC[C@]21C.N` (stereo partly drawn) [Glycyrrhizin Monoammonium Salt], in series [2], the “inhibition of CPE, TGEV” value is “Partial inhibition”. Moreover, the EC50 in [2] (Alphacoronavirus 1, CRFK, 48 h, read-out: EC50, TGEV) is under 500 µM; in series [3] (Alphacoronavirus 1, CRFK, 48 h, read-out: EC50, FipV), under 500 µM. This molecule also returned a CC50 in the series “in vitro” of 625 µM. In addition, the “inhibition of CPE, FipV” value in series [3] was “Partial inhibition”. Further, the “Tox. CRFK cells” value in the series with CRFK cells is on record as over 1 mM.
For `COc1c(C)c2c(c(O)c1C/C=C(\C)CCC(=O)O)C(=O)OC2` [Mycophenolic acid], the CC50 in “in vitro” was over 50 µg/mL.
Take `CC1(C)C(OC2OC(C(=O)O)C(O)C(O)C2OC2OC(C(=O)O)C(O)C(O)C2O)CC[C@]2(C)[C@H]3C(=O)C=C4[C@@H]5C[C@@](C)(C(=O)O)CC[C@]5(C)CC[C@@]4(C)[C@]3(C)CC[C@@H]12` (stereo partly drawn) [Glycyrrhizin, (3-beta,20-beta)-20-Carboxy-11-oxo-30-norolean-12-en-3-yl 2-O-beta-D-glucopyranuronosyl-alpha-D-glucopyranosiduronic acid]: the CC50 in the series with Vero cells is >20,000 mg/L. In addition, in “in vitro”, the CC50 is over 20000 µg/mL and the cytotoxicity lay in the range of 20 to 30%. Moreover, the “virus replication, FipV” value in the series on FipV is on record as “significantly reduced”. Besides, the “expression of viral antigens” value in series [4] (1000 mg/L) is given as “much lower”. For the same molecule, the “replication of the virus” value in series [4] (4000 mg/L) was “completely blocked replication of the virus”. Further, the “induction of nitrous oxide synthase” value in the series on nitrous oxide synthase is listed as “induced nitrous oxide synthase”. Besides, the “virus replication, TGEV” value in the series with TGEV was “significantly reduced”.
In turn, `COC(=O)[C@@]1(C)CC[C@]2(C)CC[C@]3(C)C(=CC(=O)C4[C@@]5(C)CCC(OC6OC(CO)C(O)C(O)C6OC6OC(CO)C(O)C(O)C6O)C(C)(C)C5CC[C@]43C)C2C1` (stereo partly drawn) [Compound 8] registered a CC50 in the series “in vitro” of 44 µM.
With `COC(=O)[C@@]1(C)CC[C@]2(C)CC[C@]3(C)C(=CC(=O)C4[C@@]5(C)CCC(OC6OC(C(=O)NN)C(O)C(O)C6OC6OC(C(=O)NN)C(O)C(O)C6O)C(C)(C)C5CC[C@]43C)C2C1` (stereo partly drawn) [Compound 7], the CC50 in “in vitro” amounted to 66 µM.
For the molecule `NC(=O)c1[nH]nc([C@@H]2O[C@H](CO)[C@@H](O)[C@H]2O)c1O` [Pyrazofurin], the CC50 in “in vitro” stood at 52 µg/mL.

For the origin of these results see US20070099855A1 (priority 2003, published 2007).
